Data taken from patent US12569459B2, “Compositions and methods for treating pulmonary edema or lung inflammation” (priority 2020, dated 2026).

Legend:
[1] = GLP toxicity phase: intratracheal instillation once daily for five days; format: in vivo, Sprague-Dawley rats; settings: for Body weight: female rats, at terminal euthanasia vs pre-dose
Procedure: Safety studies are described in Example 3, below. In a safety study conducted in compliance with Good Laboratory Practices (GLPs), 0.3 mL (300 μl) was administered to rats weighing 250-350 grams via intratracheal instillation daily for five consecutive days. […] The calculated dose based on lung weight was about 1.57 μg/g wet lung weight.
This study was conducted using both male and female Sprague-Dawley rats (Envigo, Huntingdon, United Kingdom). Evaluation of the safety of the tracheal route of instillation for liothyronine sodium injection in human clinical trials can be accomplished in this species at appropriate dose levels. Furthermore, responses to thyroid hormone in rats are similar to responses in humans, and the choice of the rat model is based in large part on pharmacologic data from studies of thyroid hormone and associated receptors and physiological responses in rat lung. The University of Minnesota is accredited by the Association for the Assessment and Accreditation of Laboratory Animal Care, International (AAALAC) and registered with the United States Department of Agriculture to conduct research in laboratory animals. Animal studies conformed to NIH guidelines (Guide for the Care and Use of Laboratory Animals. NIH publication No. 86-23. Revised 1985). The protocol was reviewed and approved, as applicable, by the Institutional Animal Care and Use Committee (IACUC) at the University of Minnesota for compliance with regulations prior to study initiation or implementation of amended activities.
Sixty animals (plus two spare animals/sex/group) were anesthetized and dosed via intratracheal instillation of test or control materials for five consecutive days. On the day after the last dose a terminal blood collection was performed for clinical pathology, after which animals were euthanized and a gross examination of all organs was performed by a board-certified veterinary pathologist. Select tissues were collected for histopathology. […] Terminal blood collection was performed at two designated time points per animal up to 24 hours after administration for toxicokinetic evaluation. TK animals were euthanized without further evaluation after the final blood collection. All animals were acclimated for a minimum of seven days prior to the dosing procedure. Animals underwent baseline observations and examinations prior to the initiation of the study, and clinical observations and body weight monitoring were performed throughout the in-life portion of the study. All animals received the same dose volume (0.3 mL) of either test or control materials. This maximum feasible dose (MFD) is constrained by the maximum volume that can be safely and reproducibly (over five days) instilled into lungs of rats weighing 250 g to 350 g, which was determined in preliminary toxicology studies to be 0.3 mL. Actual doses delivered are reported as both μg/kg body weight and μg/gm wet lung weight. The toxicity phase animals were 72-135 days of age at the time of initial dosing. Males weighed between 256.52 g and 307.50 g with a mean±standard deviation of 286.74±11.77 g, and females weighed between 250.46 g and 299.01 g with a mean±standard deviation of 260.64±10.34 g. The TK phase animals were 68-144 days of age at the time of initial dosing. Males weighed between 261.23 g and 316.19 g; females weighed between 250.06 g and 280.32 g.
Test and control materials were drawn into dosing syringes using aseptic technique. Using a 18G needle, 0.5 mL of air was drawn into a 1 cc syringe followed by 0.3 mL (300 μL) of the solutions. Animals were anesthetized with a combination of ketamine, 40 mg/kg to 200 mg/kg, and xylazine, 1 mg/kg to 7 mg/kg intraperitoneally (IP), to effect. The dose was adjusted daily, as needed, based on individual animal response and recovery. Depth of anesthesia was evaluated by toe pinch, and eye lubricant was applied to the eyes. […]

[2] = system: Nrf2; test: Western blot of Nrf2 protein in RLE-6TN cells under hyperoxia; format: cell-based, rat; settings: 24 hours hyperoxia, T3 10^−6 M
Excerpt: FIG. 9. […] The cells were then collected for Western Blotting analysis. (A) Cellular total protein of Nrf2. (B) Nuclear Nrf2.
FIG. 12. T3-induced increase in Nrf2 and HO-1 protein via PI3K in hyperoxia. (A) Western Blot and densitometry data for total Nrf2. (B) Western Blot and densitometry data for cytoplasmic Nrf2. (C) Western Blot and densitometry data for nuclear Nrf2.
(§1) At the end of the hyperoxia exposure period, the viable cells were counted by trypan blue dye exclusion.
Nuclei were extracted with NE-PER nuclear and cytoplasmic extraction reagents kit (Thermo Fisher Scientific, Inc., Waltham, MA) following the manufacturer's instruction.
(§2) The cells were lysed in lysis buffer containing 20 mM Tris HCl (pH 7.5), 150 mM NaCl, 1 mM EDTA, 1 mM EGTA, 1% (vol/vol) Triton X-100 with protease inhibitors (1 mM PMSF, 2 μg/ml pepstatin, and 10 μg/ml each of aprotinin and leupeptin), and phosphatase inhibitors (2.5 mM sodium pyrophosphate, 1 mM β-glycerophosphate, and 1 mM Na3VO4). The lysate was drawn 10 times through a 25-gauge needle on ice for further lysis and then was centrifuged at 13,000 rpm for 15 minutes at 4° C. The supernatant was collected, and the protein concentrations were determined by use of the BCA protein assay kit (Sigma-Aldrich, St. Louis, MO). Immediately after this step, equal amounts of protein were subjected to Western blotting analysis.

[3] = system: HO-1; test: Western blot of HO-1 protein in RLE-6TN cells under hyperoxia; format: cell-based, rat; settings: T3 10^−6 M
Procedure: FIG. 10. HO-1 Upregulation is required for T3-increased RLE-6TN cell survival in hyperoxia. […] The cells were then collected for Western Blot analysis. (B) The cells were incubated in 21% O2 and 5% CO2 for 72 hours in the present of HO-1 inhibitor Tin Protoporphyrin IX(10^−6 M) tinT3 (10^−6 M). […] Cell viability is assessed with trypan blue. The number of viable cells under specific conditions is presented as a percentage of the cell number related to hyperoxia alone. Data are mean±s.d. of three independent experiments with *=P<0.05; **=P<0.01.
as §1, §2

[4] = Phase I/II trial of instilled T3: serum thyroid hormone levels; format: in vivo, human
Excerpt: Ten milliliters (mls) of reformulated, pH-adjusted commercial intravenous T3 solution (Par Pharmaceutical, Navi Mumbai, India; and XGen Pharmaceuticals DJB, Inc., Horseheads, NY) was instilled directly into the airspaces via a suction catheter in the endotracheal tube of intubated patients with ARDS. […] The study was approved by the Essentia IRB (Duluth, MN) and listed on ClinicalTrials.gov (NCT04115514).
Subsequent doses were given on days 4, 6, and 7. […] Despite Klebsiella aerogenes positive sputum culture, they were extubated on ventilator day 11. After discharge from the ICU, they had some confusion and delirium.

[5] = system: rat lung mucosa and airspaces; settings: in vivo
Procedure: (§3) Using aseptic technique, vials of liothyronine sodium were opened and the entire contents were transferred into sterile 1.5 mL Eppendorf tubes. 80-90 μL of 1.0 N HCl was added to the tube and gently vortexed, and the pH was measured using pH test strips (pH 4.5 to 10.0, Ricca Chemical Co., Arlington, TX). Additional HCl was titrated in gradually, as needed, until the pH was in the desired range. […] This solution was stored at 4° C. and used for up to 26 hours after pH adjustment procedure.

[6] = system: rat lung mucosa and airspaces; test: Preliminary studies: intratracheal instillation of liothyronine sodium without pH adjustment; settings: pH of >10.0 as supplied commercially
Procedure: as §3

[7] = females, 1 day after fifth dose

N[C@@H](Cc1cc(I)c(Oc2ccc(O)c(I)c2)c(I)c1)C(=O)O [T3, triiodothyronine]
Gross pathology at necropsy ([1]; all toxicity phase animals): No evidence of toxicity was observed grossly | Clinical observations ([1]; during the study): No adverse T3 related clinical observations were observed | Treatment-related macroscopic or microscopic findings ([1]; end organs examined): no macroscopic or microscopic findings in any of the end organs examined | Body weight ([1]; toxicity phase): weighed slightly less than their pre-dose weight | Body weight ([1]; toxicity phase, listed as liothyronine sodium): did not regain body weight at the same rate as males or as in control groups | Hematology vs control groups [1, 7]: mildly increased reticulocyte count and degree of polychromasia | Serum chemistry vs control groups [1, 7]: slight statistical difference in the mean albumin concentration | Organ weight of the lungs ([1]; five days intratracheal instillation): no differences in the organ weight of the lungs | Hematology parameters vs control groups ([1]; males, 1 day after fifth dose): no statistical or clinically significant changes | Serum chemistry vs control groups ([1]; males, 1 day after fifth dose): slight difference in the mean globulin level | Deaths after dose administration ([1]; toxicity phase, T3 group, ascribed to colon impaction and instillation procedure): two T3 test animals that died after dose administration | Complications or changes (histopathologic, physiologic, laboratory value assessments) ([1]; ~2.7 μg in 0.3 mL intratracheally daily for five consecutive days): No significant complications or changes were observed | Total cellular and nuclear Nrf2 protein [2]: significantly increased both total cellular and nuclear Nrf-2 protein expression | Total cellular HO-1 protein [3]: significantly enhanced total cellular protein of HO-1 | Serum free T3 levels ([4]; Patient 1, four 50-μg daily instilled doses, all days of treatment): 1.9 to 3.4 pg/mL | Serum free T3 levels ([4]; Patient 2, escalating daily instilled doses 5, 10, 25, 50 μg): <1.5 to 2.2 pg/mL | Toxicity of instillation into airway and lung [5]: extremely toxic to rat lung mucosa and airspaces | Tolerability of intratracheal instillation [6]: do not tolerate
